Data as given in US20050282159A1, “Rpob gene of streptomyces, primer specific to streptomyces, and identification method of streptomyces having rifampin resistance or sensitivity by using the same” (priority 2001, published 2005).

Tests used:
60 strains = assay: rifampin genotype by rpoB nucleotide sequence analysis (summary); design: species or system Streptomyces; details: the other 41 strains with TCG or TCC at the 352nd position
Protocol: (§1) The primer sets of SEQ ID NOs: 1 and 2 were used to amplify rpoB genes of 60 strains, and nucleotides of the […] products were analyzed with an automatic sequencer. SRPOF1 as a forward primer and SRPOR1 as a backward primer were used.

[1] = tested on: 47 strains of Streptomyces references; assay: rifampin-sensitive test on Bennet solid media (summary); format: cell-based; details: 25 ug/ml rifampin, 72 hr
Protocol: A total of 47 strains of Streptomyces references including 24 reference strains having AAC encoding Asp and 23 reference strains having TCG or TCC encoding Ser at the sequenced positions were used, and 306-bI rpoB nucleotide sequences of the […] strains are shown in SEQUENCE LISTING.
(§2) The 47 strains were respectively cultured at 28° C. for 72 hr in Bennet liquid media. The culture solution was then inoculated on Bennet solid media (yeast extract 1 g/L, Beef extract 1 g/L, Tryptone 2 g/L, Glycerol 10 g/L, Agar 15 g/L) containing 25 ug/ml rifampin, and after incubation for 72 hr, rifampin-resistance was tested.

S. albulus KCTC 9668 = assay: rifampin-sensitive test on Bennet solid media; format: cell-based; design: key: “(+)” indicates a genotype with rifampin-resistance; “(−)” indicates a genotype with rifampin-susceptibility; details: TCG (TCC) genotype, 25 ug/ml rifampin, 72 hr
Protocol: as §2

S. argenteolus KCTC 9695 = assay: rifampin-sensitive test on Bennet solid media; format: cell-based; design: key: “(+)” indicates a genotype with rifampin-resistance; “(−)” indicates a genotype with rifampin-susceptibility; details: TCG (TCC) genotype, 25 ug/ml rifampin, 72 hr
Protocol: as §2

S. alboniger KCTC 9014 = assay: rifampin-sensitive test on Bennet solid media; format: cell-based; design: key: “(+)” indicates a genotype with rifampin-resistance; “(−)” indicates a genotype with rifampin-susceptibility; details: TCG (TCC) genotype, 25 ug/ml rifampin, 72 hr
Protocol: as §2

S. catenulae KCTC 9223 = assay: rifampin-sensitive test on Bennet solid media; format: cell-based; design: key: “(+)” indicates a genotype with rifampin-resistance; “(−)” indicates a genotype with rifampin-susceptibility; details: TCG (TCC) genotype, 25 ug/ml rifampin, 72 hr
Protocol: as §2

S. galilaeus KCTC 1919 = assay: rifampin-sensitive test on Bennet solid media; format: cell-based; design: key: “(+)” indicates a genotype with rifampin-resistance; “(−)” indicates a genotype with rifampin-susceptibility; details: AAC genotype, 25 ug/ml rifampin, 72 hr
Protocol: as §2

[2] = tested on: S. griseus griseus KCTC 9080; assay: rifampin-sensitive test on Bennet solid media; format: cell-based; design: key: “(+)” indicates a genotype with rifampin-resistance; “(−)” indicates a genotype with rifampin-susceptibility; details: AAC genotype, 25 ug/ml rifampin, 72 hr
Protocol: as §2

S. aminophilus KCTC 9673 = assay: rifampin-sensitive test on Bennet solid media; format: cell-based; design: key: “(+)” indicates a genotype with rifampin-resistance; “(−)” indicates a genotype with rifampin-susceptibility; details: AAC genotype, 25 ug/ml rifampin, 72 hr
Protocol: as §2

S. acrimycini KCTC 9679 = assay: rifampin-sensitive test on Bennet solid media; format: cell-based; design: key: “(+)” indicates a genotype with rifampin-resistance; “(−)” indicates a genotype with rifampin-susceptibility; details: AAC genotype, 25 ug/ml rifampin, 72 hr
Protocol: as §2

[3] = tested on: S. chrysomallus KCTC 9705; assay: rifampin-sensitive test on Bennet solid media; format: cell-based; design: key: “(+)” indicates a genotype with rifampin-resistance; “(−)” indicates a genotype with rifampin-susceptibility; details: TCG (TCC) genotype, 25 ug/ml rifampin, 72 hr
Protocol: as §2

[4] = tested on: S. chattanoogensis KCTC 1087; assay: rifampin-sensitive test on Bennet solid media; format: cell-based; design: key: “(+)” indicates a genotype with rifampin-resistance; “(−)” indicates a genotype with rifampin-susceptibility; details: TCG (TCC) genotype, 25 ug/ml rifampin, 72 hr
Protocol: as §2

S. echinoruber KCTC 9725 = assay: rifampin-sensitive test on Bennet solid media; format: cell-based; design: key: “(+)” indicates a genotype with rifampin-resistance; “(−)” indicates a genotype with rifampin-susceptibility; details: AAC genotype, 25 ug/ml rifampin, 72 hr
Protocol: as §2

[5] = tested on: S. phaeochromogenes KCTC 9763; assay: rifampin-sensitive test on Bennet solid media; format: cell-based; design: key: “(+)” indicates a genotype with rifampin-resistance; “(−)” indicates a genotype with rifampin-susceptibility; details: AAC genotype, 25 ug/ml rifampin, 72 hr
Protocol: as §2

S. durhamensis KCTC 9723 = assay: rifampin-sensitive test on Bennet solid media; format: cell-based; design: key: “(+)” indicates a genotype with rifampin-resistance; “(−)” indicates a genotype with rifampin-susceptibility; details: AAC genotype, 25 ug/ml rifampin, 72 hr
Protocol: as §2

[6] = tested on: S. cuspidosporus KCTC 9718; assay: rifampin-sensitive test on Bennet solid media; format: cell-based; design: key: “(+)” indicates a genotype with rifampin-resistance; “(−)” indicates a genotype with rifampin-susceptibility; details: AAC genotype, 25 ug/ml rifampin, 72 hr
Protocol: as §2

S. bacillaris KCTC 9018 = assay: rifampin-sensitive test on Bennet solid media; format: cell-based; design: key: “(+)” indicates a genotype with rifampin-resistance; “(−)” indicates a genotype with rifampin-susceptibility; details: TCG (TCC) genotype, 25 ug/ml rifampin, 72 hr
Protocol: as §2

S. flaveolus KCTC 9022 = assay: rifampin-sensitive test on Bennet solid media; format: cell-based; design: key: “(+)” indicates a genotype with rifampin-resistance; “(−)” indicates a genotype with rifampin-susceptibility; details: AAC genotype, 25 ug/ml rifampin, 72 hr
Protocol: as §2

[7] = tested on: S. antimycoticus KCTC 9694; assay: rifampin-sensitive test on Bennet solid media; format: cell-based; design: key: “(+)” indicates a genotype with rifampin-resistance; “(−)” indicates a genotype with rifampin-susceptibility; details: TCG (TCC) genotype, 25 ug/ml rifampin, 72 hr
Protocol: as §2

S. coralus KCCM 40642 = assay: rifampin genotype by rpoB nucleotide sequence analysis; details: TCG (TCC) genotype
Protocol: as §1

S. anabdii KCTC 9687 = assay: as above; details: TCG (TCC) genotype
Protocol: as §1

S. caseius KCCM 40740 = assay: as above; details: TCG (TCC) genotype
Protocol: as §1

S. humidus KCCM 40647 = assay: as above
Protocol: as §1
(§3) FIG. 8 is an electropherogram obtained by amplifying 306-bp rpoB gene fragment with the SRPOF1 and SRPOR1 primer set and automatically sequencing with an SRPOF1 primer.

[8] = tested on: S. atroolvaceous KCTC 9017; assay: as above
Protocol: as §1, §3

[9] = tested on: S. anthocyanicus KCTC 9755; assay: as above; details: AAC genotype
Protocol: as §1, §3

## CO[C@H]1/C=C/O[C@@]2(C)Oc3c(C)c(O)c4c(O)c(c(/C=N/N5CCN(C)CC5)c(O)c4c3C2=O)NC(=O)/C(C)=C\C=C\[C@H](C)[C@H](O)[C@@H](C)[C@@H](O)[C@@H](C)[C@H](OC(C)=O)[C@@H]1C [rifampin]
60 strains
  rifampin genotype of the strains: rifampin-sensitive genotypes
[1]; all 24 strains having AAC genotypes
  rifampin resistance or sensitivity of the strains: rifampin-resistant strains
[1]; the 23 strains having TCG or TCC genotypes
  rifampin resistance or sensitivity of the strains: rifampin-sensitive strains
S. albulus KCTC 9668
  genotype (rifampin-resistance or susceptibility): −
S. argenteolus KCTC 9695
  genotype (rifampin-resistance or susceptibility): −
S. alboniger KCTC 9014
  genotype (rifampin-resistance or susceptibility): −
S. catenulae KCTC 9223
  genotype (rifampin-resistance or susceptibility): −
S. galilaeus KCTC 1919
  genotype (rifampin-resistance or susceptibility): +
[2]
  genotype (rifampin-resistance or susceptibility): +
S. aminophilus KCTC 9673
  genotype (rifampin-resistance or susceptibility): +
S. acrimycini KCTC 9679
  genotype (rifampin-resistance or susceptibility): +
[3]
  genotype (rifampin-resistance or susceptibility): −
[4]
  genotype (rifampin-resistance or susceptibility): −
S. echinoruber KCTC 9725
  genotype (rifampin-resistance or susceptibility): +
[5]
  genotype (rifampin-resistance or susceptibility): +
S. durhamensis KCTC 9723
  genotype (rifampin-resistance or susceptibility): +
[6]
  genotype (rifampin-resistance or susceptibility): +
S. bacillaris KCTC 9018
  genotype (rifampin-resistance or susceptibility): −
S. flaveolus KCTC 9022
  genotype (rifampin-resistance or susceptibility): +
[7]
  genotype (rifampin-resistance or susceptibility): −
S. coralus KCCM 40642
  genotype (rifampin-resistant or -sensitive strain): −
S. anabdii KCTC 9687
  genotype (rifampin-resistant or -sensitive strain): −
S. caseius KCCM 40740
  genotype (rifampin-resistant or -sensitive strain): −
S. humidus KCCM 40647; S. humidus (KCCM 40647), TCG genotype, identical to the known sensitivity results
  rifampin resistance or sensitivity of the strain: rifampin-sensitive strains
S. humidus KCCM 40647; S. humidus KCCM 40647, TCG (TCC) genotype
  genotype (rifampin-resistant or -sensitive strain): −
[8]; S. atroolvaceous (KCTC9017), TCG genotype, identical to the known sensitivity results
  rifampin resistance or sensitivity of the strain: rifampin-sensitive strains
[8]; S. atroolvaceous KCTC 9017, TCG (TCC) genotype
  genotype (rifampin-resistant or -sensitive strain): −
[9]; S. anthocyanicus (KCTC 9755), identical to the known sensitivity results
  rifampin resistance or sensitivity of the strain: rifampin-resistant strain
[9]; S. anthocyanicus KCTC 9755
  genotype (rifampin-resistant or -sensitive strain): +
